Laboratory results from patent publication US20160256480A1, “THERAPEUTIC COMPOSITION FOR WOUND HEALING” (priority 2015, published 2016).

Columns and labels:
[1] = Dissolution of beta-glucan in MilliQ Ultrapure water; assay type: physicochemical
Method: (§1) J774A.1 cells are mouse monocyte/macrophage cells. These cells are adherent and upon death will detach from the surface fo the culture flasks or coverslips. Cells were grown to approximately 80% confluence in 24-well plates on 12 mm coverslips overnight. Cells were grown in a minimum essential medium with insulin (IMEMZO, Irvine Scientific, Santa Ana, Calif.) with 5% fetal bovine serum (FBS, Atlanta Biologicals, Norcross, Ga.). Beta-glucan was dissolved with MilliQ Ultrapure water. […] Beta-glucan was diluted with IMEMZO media and added to the cells for the duration of the incubation. Cells were examined daily and phase-contrast images taken at specific intervals to capture the health of the cells. All images were captured at 200× magnification.

J774A.1 cells = assay: Incubation of J774A.1 mouse macrophages with beta-glucan, phase-contrast examination of cell health; assay type: cell-based
Method: as §1
The beta-glucan was purchased from Sigma-Aldrich (CAS Number 9051-97-2; MDL number MFCD00466918). Beta-glucan source was Euglena gracilis.

With “beta-1,3-Glucan from Euglena gracilis [beta-glucan]” the solubility in water [1] was “only partially dissolved”, the “effect on cell growth and proliferation” value (J774A.1 cells; 1 mg/ml beta-glucan over 48 hours) was “no adverse affect on the cell growth and proliferation” and the “increase in cell numbers” value (J774A.1 cells; 3 mg/ml beta-glucan, base media IMEMZO, 48 hours) was “increased in numbers at a rate that is typical in the base media”. For the same substance, the “visible pathological effects on cellular growth or survival” value (J774A.1 cells; 3 mg/ml beta-glucan, mouse macrophages, 48 hour culture period) was “did not pose any visible pathological effects on cellular growth or survival” and the “cell size and adherence” value (J774A.1 cells; 3 mg/ml beta-glucan, over the 48 hour culture period) was “did not decrease in size and remained adherent”.
